According to patent publication US20170212981A1, “METHODS FOR SCREENING THERAPEUTIC AGENT FOR PROTEIN CONFORMATIONAL DISEASES” (SOOKMYUNG WOMEN'S UNIVERSITY INDUSTRY ACADEMIC COOPERATION …, priority 2016, published 2017):
Like-named read-outs stand apart in the source and are kept apart here.

Key:
[1] = target: T1, Aβ1-40 monomers, oligomers, fibrils (Homo sapiens, UniProt P05067); test: Emission of dye incubated with preformed Aβ monomers, oligomers and fibrils; type: binding; conditions: Aβ 20 μM
T1 construct: Synthetic Aβ1-40 was purchased from American Peptide Co; purchased American Peptide Co. (Sunnyvale, Calif.); host or cells: chemical synthesis
T1 sequence (P05067 672-711 limits assumed): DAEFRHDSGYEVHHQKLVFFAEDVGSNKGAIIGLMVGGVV
Procedure: Synthetic Aβ1-40 was purchased from American Peptide Co. (Sunnyvale, Calif.) in lyophilized form. Dry peptide was dissolved in 1,1,1,3,3,3-hexafluoro-2-isopropanol (HFIP) and incubated at 25° C. for 1 h to remove any preformed aggregates. It was aliquoted into small aliquots and dried using a speed-vac. The dry peptide was stored at −20° C. until required, where each aliquot was then dissolved in 5 M GuHCl 10 mM Tris.Cl pH 8 to 1 mM peptide solution. After sonication in a sonicating water bath for 15 min, the solution was diluted with phosphate-buffered saline (PBS), pH 7.4, and stored on ice until use. This freshly prepared sample is referred to as monomer. To form fibrils, 100 μM sample is incubated for 24 h at 37° C. with 5 s shaking at a 7 min interval. […] Prior to fluorescence assays, it is resolubilized in deionized distilled water and diluted in PBS. […]
HPLC-MS was taken on an Agilent-1200 with a DAD detector and a single quadrupole mass spectrometer (6130 series). […] Spectroscopic and quantum yield data were measured on a SpectraMax M2 spectrophotometer (Molecular Devices). Compounds in solvent (100 μL) in 96-well polypropylene plates was for fluorescence measurement. […] 1H-NMR and 13C-NMR spectra were recorded on Bruker AMX500 (500 MHz) spectrometers, and chemical shifts are expressed in parts per million (ppm) and coupling constants are reported as a J value in Hertz (Hz).

Aβ oligomers = target: T2, Aβ oligomers (Homo sapiens, UniProt P05067); test: Saturation assay, apparent binding constant for Aβ oligomers; conditions: Aβ oligomers 20 μM, λex=530 nm
T2 construct: Preformed oligomers were prepared by Aβ1-40 peptide solubilized in borate-buffered saline; purchased American Peptide Co. (Sunnyvale, Calif.); host or cells: chemical synthesis, then cross-linked in house with glutaraldehyde
T2 sequence (P05067 672-711 limits assumed): as above
Procedure: FIG. 7 depicts BD-Oligo binding constant (Aβ oligomers: 20 μM, λex=530 nm), F is the fluorescence intensity of BD-Oligo at 580 nm after binding with Aβ oligomers; and F0 is the fluorescence intensity of BD-Oligo at 580 nm before binding with Aβ oligomers.
To quantify the affinity of BDOligo for Aβ oligomers, we measured the apparent binding constant (Kd) of BD-Oligo by conducting a saturation assay.

Aβ1-40 = target: T3, Aβ1-40 (Homo sapiens, UniProt P05067); test: Time-dependent fibril formation monitored by dye fluorescence; type: binding; conditions: Aβ1-40 at 37° C. with shaking; aliquots added to dye
T3 construct: Synthetic Aβ1-40 was purchased from American Peptide Co; purchased American Peptide Co. (Sunnyvale, Calif.); host or cells: chemical synthesis
T3 sequence (P05067 672-711 limits assumed): as above
Procedure: For monitoring of fibril formation over time, 40 µM peptide solution of Aβ1-40 was prepared as above and incubated at 37° C. with 5 s shaking at every 7 min interval. Fluorescence readings were taken at various time point intervals by mixing a 30 μL aliquot of peptide solution to […]. ThT signal was monitored at 480 nm by 444 nm excitation, whereas BD-Oligo was excited at 530 nm and its emission detected at 585 nm. Fluorescence was measured using a SpectraMax M2 spectrophotometer (Molecular Devices, Sunnyvale, Calif.). Aβ1-40 was also coincubated with dye to study any effects the dye may have on fibril formation.

[2] = test system: APP/PS1 transgenic (Tg) AD model mice; test: Ex vivo imaging of brains after ip injection; type: in vivo
Procedure: For ex vivo imaging, a stock solution of BD-Oligo was made at 10 mM in 100% DMSO.
Eighteen month old APP/PS 1 transgenic (Tg) AD model mice were given intraperitoneal (ip) injections with either 1.25 μL of BD-Oligo diluted in 500 μL of saline (n=2) or 500 μL of saline alone (n=2). APP/PS 1 Tg mice develop amyloid plaques from 4 months of age. Mice were anesthetized with an overdose of sodium pentobarbital and perfused 0.1 M PBS, pH 7.4. Brains were removed 24 h after the ip injection and fixed by immersion in periodate-lysine-paraformaldehyde for 24 h, cryo-protected in 30% sucrose for 3 days, and sectioned into 40 μm coronal sections using a cryostat. Brain sections from the BD-Oligoinjected mouse and the control APP/PS 1 mouse that received a saline alone injection were then stained for Aβ using fluorescent immunohistochemistry. Briefly, free floating sections were incubated with MOM blocking reagent (Vector) followed by an overnight incubation at 4° C. with anti-Aβ antibodies 4G8 and 6E10 diluted in MOM protein concentrate (Vector), as the present inventors previously published. Sections were then incubated with a 488 conjugated secondary antibody (Jackson Immunoresearch) for 2 h at room temperature, mounted onto slides, and cover slipped. Staining was visualized using a LMD6500 fluorescent microscope (Leica); 6E10/4G8 staining was imaged using in the green (488) channel, and BD-Oligo was imaged in the red (561) channel.

Row | SMILES | fluorescence enhancement with Aβ monomers, oligomers, fibrils ([1]; λex=530 nm) | Bmax, best-fit value (Aβ oligomers; detailed statistics of the saturation fit) | Kd (Aβ oligomers; detailed statistics of the saturation fit, read-out: Kd, best-fit value) [nM] | Kd (Aβ oligomers; saturation assay, Scatchard plot, emission 580 nm, read-out: apparent binding constant (Kd) for Aβ oligomers) [nM] | incubation time at maximum fluorescence during Aβ fibril formation (Aβ1-40) | toxicity associated with in vivo injection ([2]; 18 month old APP/PS1 Tg mice) | blood-brain barrier penetration ([2]; 18 month old APP/PS1 Tg mice, brains removed after 24 h) | labeling of brain tissue ([2]; brain sections 24 h later, co-stained with anti-Aβ 6E10/4G8) | fluorescence response to Aβ monomers, oligomers, fibrils ([1]; λex=440 nm, dye 5 μM)
1 | CCOc1cccc(C=Cc2cc(C)c3n2[B-](F)(F)[N+]2=C(CCC(=O)OCC(Cl)(Cl)Cl)C=CC2=C3)c1O [BD-Oligo] | highest fluorescence enhancement is observed upon incubation with Aβ oligomers | 7.886 | 482 | 480 | about 1 day | no apparent toxicity | able to cross the BBB | fluorescent labeling of AD brain tissue | 
2 | Cc1ccc2c(c1)sc(-c1ccc(N(C)C)cc1)[n+]2C.[Cl-] [ThT, Thioflavin T, reference compound] |  |  |  |  | about 1 day |  |  |  | increasing order of freshly prepared Aβ monomers, followed by oligomer and fibrils
